Measurements from PubChem BioAssay AID2060507 (Molecular Pharmacology Branch, DTP, NCI, 2025).

System: 519858-162-T-J1-PDC complex spheroid viability
Assay: Anticancer human tumor 519858-162-T-J1-PDC patient-derived colon adenocarcinoma cell line growth inhibition [GQUAD]
Settings: for IC50: curve of first compound; for viability, T/C: stronger effect = lower value
Summary of the method: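 Viability of tumor cells grown as complex spheroids with endothelial and stromal cells, exposed to drug combinations. Top concentration at or near clinical Cmax (else 10 microM), diluted in half-log increments.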

[1] = second compound 0.0316 µM, first compound 0.0316 µM
[2] = second compound 0.0316 µM, first compound 0.1 µM
[3] = second compound 0.0316 µM, first compound 0.316 µM
[4] = second compound 0.0316 µM, first compound 1 µM
[5] = second compound 0.0316 µM, first compound 3.16 µM
[6] = second compound 0.0316 µM, first compound 10 µM
[7] = second compound 0.1 µM, first compound 0.0316 µM
[8] = second compound 0.1 µM, first compound 0.1 µM
[9] = second compound 0.1 µM, first compound 0.316 µM
[10] = second compound 0.1 µM, first compound 1 µM
[11] = second compound 0.1 µM, first compound 3.16 µM
[12] = second compound 0.1 µM, first compound 10 µM
[13] = second compound 0.316 µM, first compound 0.0316 µM
[14] = second compound 0.316 µM, first compound 0.1 µM
[15] = second compound 0.316 µM, first compound 0.316 µM
[16] = second compound 0.316 µM, first compound 1 µM
[17] = second compound 0.316 µM, first compound 3.16 µM
[18] = second compound 0.316 µM, first compound 10 µM
[19] = second compound 1 µM, first compound 0.0316 µM
[20] = second compound 1 µM, first compound 0.1 µM
[21] = second compound 1 µM, first compound 0.316 µM
[22] = second compound 1 µM, first compound 1 µM
[23] = second compound 1 µM, first compound 3.16 µM
[24] = second compound 1 µM, first compound 10 µM
[25] = second compound 3.16 µM, first compound 0.0316 µM
[26] = second compound 3.16 µM, first compound 0.1 µM
[27] = second compound 3.16 µM, first compound 0.316 µM
[28] = second compound 3.16 µM, first compound 1 µM
[29] = second compound 3.16 µM, first compound 3.16 µM
[30] = second compound 3.16 µM, first compound 10 µM
[31] = second compound 10 µM, first compound 0.0316 µM
[32] = second compound 10 µM, first compound 0.1 µM
[33] = second compound 10 µM, first compound 0.316 µM
[34] = second compound 10 µM, first compound 1 µM
[35] = second compound 10 µM, first compound 3.16 µM
[36] = second compound 10 µM, first compound 10 µM
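Wherever viability, T/C is given: 100% = DMSO vehicle control viability.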

C#Cc1c(F)ccc2cc(O)cc(-c3ncc4c(N5CC6CCC(C5)N6)nc(OCC56CCCN5CC(F)C6)nc4c3F)c12 (stereo not given) + CN(C)c1ccc(Nc2c3ccc(NC(=O)CCN4CCCC4)cc3nc3cc(NC(=O)CCN4CCCC4)ccc23)cc1
IC50 (second compound 0.0316 µM): > 10 µM | IC50 (second compound 0.1 µM): > 10 µM | IC50 (second compound 0.316 µM): > 10 µM | IC50 (second compound 1 µM): > 10 µM | IC50 (second compound 3.16 µM): > 10 µM | IC50 (second compound 10 µM): > 10 µM | viability, T/C [1]: 117% | viability, T/C [2]: 100% | viability, T/C [3]: 99.8% | viability, T/C [4]: 70.8% | viability, T/C [5]: 72% | viability, T/C [6]: 99.5% | viability, T/C [7]: 86.2% | viability, T/C [8]: 85.3% | viability, T/C [9]: 89.4% | viability, T/C [10]: 93.2% | viability, T/C [11]: 70.2% | viability, T/C [12]: 62.7% | viability, T/C [13]: 134% | viability, T/C [14]: 87.8% | viability, T/C [15]: 93.1% | viability, T/C [16]: 77.3% | viability, T/C [17]: 82.1% | viability, T/C [18]: 77.6% | viability, T/C [19]: 112% | viability, T/C [20]: 97.4% | viability, T/C [21]: 78.1% | viability, T/C [22]: 66.2% | viability, T/C [23]: 91.7% | viability, T/C [24]: 62% | viability, T/C [25]: 92% | viability, T/C [26]: 85.5% | viability, T/C [27]: 118% | viability, T/C [28]: 74.5% | viability, T/C [29]: 72.9% | viability, T/C [30]: 62.9% | viability, T/C [31]: 66.9% | viability, T/C [32]: 55% | viability, T/C [33]: 77.8% | viability, T/C [34]: 48.9% | viability, T/C [35]: 89.3% | viability, T/C [36]: 55.6%

C=CC(=O)N1CCN(c2nc(=O)n(-c3c(C)ccnc3C(C)C)c3nc(-c4c(O)cccc4F)c(F)cc23)C(C)C1 (stereo not given) + CN(C)c1ccc(Nc2c3ccc(NC(=O)CCN4CCCC4)cc3nc3cc(NC(=O)CCN4CCCC4)ccc23)cc1
IC50 (second compound 0.0316 µM): > 10 µM | IC50 (second compound 0.1 µM): > 10 µM | IC50 (second compound 0.316 µM): > 10 µM | IC50 (second compound 1 µM): > 10 µM | IC50 (second compound 3.16 µM): > 10 µM | IC50 (second compound 10 µM): < 0.0316 µM | viability, T/C [1]: 91.5% | viability, T/C [2]: 84.4% | viability, T/C [3]: 61.4% | viability, T/C [4]: 69.3% | viability, T/C [5]: 94% | viability, T/C [6]: 110% | viability, T/C [7]: 81.7% | viability, T/C [8]: 72.3% | viability, T/C [9]: 80.3% | viability, T/C [10]: 61.8% | viability, T/C [11]: 84.1% | viability, T/C [12]: 95.8% | viability, T/C [13]: 88.3% | viability, T/C [14]: 80.8% | viability, T/C [15]: 120% | viability, T/C [16]: 68.8% | viability, T/C [17]: 84% | viability, T/C [18]: 60.1% | viability, T/C [19]: 78.8% | viability, T/C [20]: 74.4% | viability, T/C [21]: 56.4% | viability, T/C [22]: 69.3% | viability, T/C [23]: 78.7% | viability, T/C [24]: 80.3% | viability, T/C [25]: 62.3% | viability, T/C [26]: 63.9% | viability, T/C [27]: 68.8% | viability, T/C [28]: 62.2% | viability, T/C [29]: 47.6% | viability, T/C [30]: 94.9% | viability, T/C [31]: 48.2% | viability, T/C [32]: 40.3% | viability, T/C [33]: 56.7% | viability, T/C [34]: 61.5% | viability, T/C [35]: 49.2% | viability, T/C [36]: 66.5%

CC(=O)O[C@H]1C(=O)[C@@]2(C)[C@H]([C@H](OC(=O)c3ccccc3)[C@]3(O)C[C@H](OC(=O)[C@H](O)[C@@H](NC(=O)c4ccccc4)c4ccccc4)C(C)=C1C3(C)C)[C@]1(OC(C)=O)CO[C@@H]1C[C@@H]2O + CN(C)c1ccc(Nc2c3ccc(NC(=O)CCN4CCCC4)cc3nc3cc(NC(=O)CCN4CCCC4)ccc23)cc1
IC50 (second compound 0.0316 µM): > 10 µM | IC50 (second compound 0.1 µM): > 10 µM | IC50 (second compound 0.316 µM): > 10 µM | IC50 (second compound 1 µM): > 10 µM | IC50 (second compound 3.16 µM): > 10 µM | IC50 (second compound 10 µM): > 10 µM | viability, T/C [1]: 84.6% | viability, T/C [2]: 95.5% | viability, T/C [3]: 137% | viability, T/C [4]: 86.5% | viability, T/C [5]: 61.9% | viability, T/C [6]: 119% | viability, T/C [7]: 74.1% | viability, T/C [8]: 134% | viability, T/C [9]: 89.5% | viability, T/C [10]: 82% | viability, T/C [11]: 111% | viability, T/C [12]: 98.4% | viability, T/C [13]: 89.7% | viability, T/C [14]: 86.5% | viability, T/C [15]: 96.8% | viability, T/C [16]: 69.7% | viability, T/C [17]: 92% | viability, T/C [18]: 115% | viability, T/C [19]: 87.4% | viability, T/C [20]: 74.9% | viability, T/C [21]: 70.7% | viability, T/C [22]: 64.5% | viability, T/C [23]: 84.8% | viability, T/C [24]: 86.3% | viability, T/C [25]: 79.1% | viability, T/C [26]: 68.1% | viability, T/C [27]: 70.8% | viability, T/C [28]: 55.3% | viability, T/C [29]: 75.9% | viability, T/C [30]: 84.6% | viability, T/C [31]: 68.2% | viability, T/C [32]: 62.4% | viability, T/C [33]: 63.9% | viability, T/C [34]: 55.1% | viability, T/C [35]: 80.3% | viability, T/C [36]: 72.7%

COc1cccc2c1C(=O)c1c(O)c3c(c(O)c1C2=O)CC(O)(C(=O)CO)CC3OC1CC(N)C(O)C(C)O1 (stereo not given) + CN(C)c1ccc(Nc2c3ccc(NC(=O)CCN4CCCC4)cc3nc3cc(NC(=O)CCN4CCCC4)ccc23)cc1
IC50 (second compound 0.0316 µM): > 10 µM | IC50 (second compound 0.1 µM): > 10 µM | IC50 (second compound 0.316 µM): > 10 µM | IC50 (second compound 1 µM): 8.56 µM | IC50 (second compound 3.16 µM): > 10 µM | IC50 (second compound 10 µM): > 10 µM | viability, T/C [1]: 80.7% | viability, T/C [2]: 124% | viability, T/C [3]: 97.7% | viability, T/C [4]: 72% | viability, T/C [5]: 71% | viability, T/C [6]: 58.1% | viability, T/C [7]: 90.6% | viability, T/C [8]: 84.6% | viability, T/C [9]: 104% | viability, T/C [10]: 80.8% | viability, T/C [11]: 60.5% | viability, T/C [12]: 60.1% | viability, T/C [13]: 88.4% | viability, T/C [14]: 58.5% | viability, T/C [15]: 79.7% | viability, T/C [16]: 65.1% | viability, T/C [17]: 62.2% | viability, T/C [18]: 75.5% | viability, T/C [19]: 85.5% | viability, T/C [20]: 71.9% | viability, T/C [21]: 56.4% | viability, T/C [22]: 100% | viability, T/C [23]: 65.2% | viability, T/C [24]: 47.1% | viability, T/C [25]: 74.9% | viability, T/C [26]: 60.6% | viability, T/C [27]: 80% | viability, T/C [28]: 66.8% | viability, T/C [29]: 63.2% | viability, T/C [30]: 55.8% | viability, T/C [31]: 57.1% | viability, T/C [32]: 62.9% | viability, T/C [33]: 57.1% | viability, T/C [34]: 60.1% | viability, T/C [35]: 50.3% | viability, T/C [36]: 68.8%

Cc1cccc(N(C)C(=O)C2C(O)CCN2c2nc(C)cc(C(F)(F)F)c2C#N)c1 (stereo not given) + CN(C)c1ccc(Nc2c3ccc(NC(=O)CCN4CCCC4)cc3nc3cc(NC(=O)CCN4CCCC4)ccc23)cc1
IC50 (second compound 0.0316 µM): > 10 µM | IC50 (second compound 0.1 µM): > 10 µM | IC50 (second compound 0.316 µM): > 10 µM | IC50 (second compound 1 µM): > 10 µM | IC50 (second compound 3.16 µM): > 10 µM | IC50 (second compound 10 µM): > 10 µM | viability, T/C [1]: 86.1% | viability, T/C [2]: 126% | viability, T/C [3]: 96.4% | viability, T/C [4]: 95.2% | viability, T/C [5]: 91.1% | viability, T/C [6]: 92.9% | viability, T/C [7]: 105% | viability, T/C [8]: 78.6% | viability, T/C [9]: 109% | viability, T/C [10]: 77.2% | viability, T/C [11]: 68.1% | viability, T/C [12]: 83.8% | viability, T/C [13]: 111% | viability, T/C [14]: 87.7% | viability, T/C [15]: 120% | viability, T/C [16]: 61.4% | viability, T/C [17]: 75% | viability, T/C [18]: 85.5% | viability, T/C [19]: 102% | viability, T/C [20]: 84.6% | viability, T/C [21]: 109% | viability, T/C [22]: 73.1% | viability, T/C [23]: 88.8% | viability, T/C [24]: 73.3% | viability, T/C [25]: 63.9% | viability, T/C [26]: 76.2% | viability, T/C [27]: 103% | viability, T/C [28]: 91.8% | viability, T/C [29]: 78.5% | viability, T/C [30]: 62.3% | viability, T/C [31]: 71.2% | viability, T/C [32]: 78.8% | viability, T/C [33]: 57.9% | viability, T/C [34]: 90.7% | viability, T/C [35]: 65.2% | viability, T/C [36]: 88.3%
